Columns and labels:
[1] = DPPH free radical scavenging assay; conditions: 30 min, room temperature (30 °C), 515 nm
Description: The DPPH method [36] was used to determine the free radical-scavenging potential of each sample. The test sample (0.1 mL) was added to 3.9 mL of DPPH solution (6 × 10^−5 M). The absorbance was measured at 515 nm after 30 min of the reaction at room temperature (30 °C). The antiradical activity was calculated as a percentage of DPPH decolouration versus a control. The results were expressed as the concentration of the FTE that scavenged 50% of the free radicals from the reaction mixture (SC50). The percent DPPH scavenging effect was calculated by using following equation [37]: (1) DPPHscavengingeffect(%)orPercentinhibition=[Ao - At/Ao]×100 where Ao is the absorbance of the control reaction and At is the absorbance in the presence of a test or standard sample. AsA, BHA, BHT, and tocopherol were used as positive references.

mushroom tyrosinase = assay: Mushroom tyrosinase inhibition in vitro (dopachrome method, L-DOPA oxidation); assay type: biochemical; conditions: mean ± SEM; L-DOPA substrate, pH 6.8, 25 °C
Description: Briefly, 120 µL of 20 mM phosphate buffer (pH 6.8), 40 µL of 48 units/mL mushroom tyrosinase, and 20 µL of various sample concentrations with or without enzyme were placed in the wells of a 96-well microplate. After pre-incubation at 25 °C for 10 min, 20 µL of 0.85 mM L-DOPA was added, and the plate was subsequently incubated at 25 °C for 20 min. The amount of dopachrome was measured at 492 nm in an ELISA plate reader (Anthos 2010, Anthos Labtec Instruments GmbH, Wals, Austria). The extent of inhibition by the test samples was expressed as the percentage of concentration necessary to achieve 50% inhibition (IC50).

[2] = Chelation of ferrous metal ions (ferrozine-Fe2+ complex formation); conditions: mean ± SD; 10 min, 30 °C, 562 nm
Description: The method of Gülçin et al. was followed. The reaction mixture, containing different concentrations of each sample, FeCl2 (2 mM), and ferrozine (1.5 mM), was adjusted to a total volume of 4 mL with absolute methanol, shaken well, and incubated for 10 min at room temperature (30 °C). The absorbance of the mixture was measured at 562 nm against a blank. EDTA was used as the positive reference. The percent inhibition of ferrozine-Fe^2+ complex formation was calculated against a control. The results were expressed as the concentration of the FTE that chelated 50% of metal ions (IC50).

| SMILES | SC50 (50% inhibition of the DPPH scavenging effect) [1] | Anti-tyrosinase IC50 (mushroom tyrosinase) | also measured |
| --- | --- | --- | --- |
| Cc1c(C)c2c(c(C)c1O)CCC(C)(CCCC(C)CCCC(C)CCCC(C)C)O2 (racemic) [Tocopherol, DL-α-tocopherol] | 0.196 ± 0.005 moles of tested compound/mole DPPH |  |  |
| O=C1O[C@H]([C@@H](O)CO)C(O)=C1O [AsA, ascorbic acid] | 0.209 ± 0.006 moles of tested compound/mole DPPH |  |  |
| COc1ccc(O)c(C(C)(C)C)c1 [BHA, butylated hydroxyanisole] | 0.184 ± 0.011 moles of tested compound/mole DPPH |  |  |
| Cc1cc(C(C)(C)C)c(O)c(C(C)(C)C)c1 [BHT, butylated hydroxytoluene] | 0.224 ± 0.005 moles of tested compound/mole DPPH |  |  |
| O=C(O[C@@H]1Cc2c(O)cc(O)cc2O[C@@H]1c1ccc(O)c(O)c1)c1cc(O)c(O)c(O)c1 [ECG, (−)-epicatechin-3-gallate] |  | 76.50 ± 1.50 µg/mL |  |
| O=C(O)CN(CCN(CC(=O)O)CC(=O)O)CC(=O)O [EDTA, ethylenediaminetetraacetic acid] |  |  | Iron(II)-chelating IC50 [2]: 10 ± 0 µg/mL |
| Oc1cc(O)c2c(c1)O[C@H](c1cc(O)c(O)c(O)c1)[C@H](O)C2 [EGC, (−)-epigallocatechin] |  | 110.00 ± 0.00 µg/mL |  |
| O=C(O[C@@H]1Cc2c(O)cc(O)cc2O[C@@H]1c1cc(O)c(O)c(O)c1)c1cc(O)c(O)c(O)c1 [EGCG, (−)-epigallocatechin-3-gallate] |  | 234.00 ± 6.00 µg/mL |  |
